ChEMBL document CHEMBL5360564, “Small molecule LpxC inhibitors against gram-negative bacteria: Advances and future perspectives” (Eur J Med Chem, 2023)
≈ marks a conversion by molar mass, not a printed value. Blank lines part the entries; values can stand above or below the molecule they belong to.

What was measured:
[1] = biological target: T1, UDP-3-O-acyl-N-acetylglucosamine deacetylase (Pseudomonas aeruginosa, UniProt B5ATN6); experiment: Inhibition of recombinant Pseudomonas aeruginosa LpxC expressed in Escherichia coli
T1 sequence (B5ATN6 whole entry): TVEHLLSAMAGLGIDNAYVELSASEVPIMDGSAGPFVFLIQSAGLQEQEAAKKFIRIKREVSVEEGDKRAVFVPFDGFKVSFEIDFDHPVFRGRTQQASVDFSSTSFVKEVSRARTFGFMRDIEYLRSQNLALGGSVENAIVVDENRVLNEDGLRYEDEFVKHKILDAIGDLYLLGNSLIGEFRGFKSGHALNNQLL

[2] = test system: Pseudomonas aeruginosa; experiment: Antibacterial activity against Pseudomonas aeruginosa clinical isolate assessed as bacterial growth inhibition by microdilution assay; format: functional
[3] = test system: Escherichia coli; experiment: Antibacterial activity against Escherichia coli D21 assessed as bacterial growth inhibition measured after 20 hrs by checkerboard method; format: functional
[4] = test system: Escherichia coli; experiment: Antibacterial activity against Escherichia coli DH5alpha assessed as bacterial growth inhibition measured after 18 hrs by broth microdilution assay; format: functional
[5] = test system: Pseudomonas aeruginosa; experiment: Antibacterial activity against Pseudomonas aeruginosa PAO1 assessed as bacterial growth inhibition measured after 18 hrs by broth microdilution assay; format: functional
[6] = test system: Pseudomonas aeruginosa; experiment: Antibacterial activity against Pseudomonas aeruginosa PA14 assessed as bacterial growth inhibition measured after 18 hrs by broth microdilution assay; format: functional
[7] = test system: Pseudomonas aeruginosa; experiment: Antibacterial activity against Pseudomonas aeruginosa HER 1018 assessed as bacterial growth inhibition by twofold dilution method; format: functional
[8] = biological target: T2, UDP-3-O-acyl-N-acetylglucosamine deacetylase (Escherichia coli K-12, UniProt P0A725); experiment: Inhibition of Escherichia coli LpxC
T2 sequence (P0A725 whole entry): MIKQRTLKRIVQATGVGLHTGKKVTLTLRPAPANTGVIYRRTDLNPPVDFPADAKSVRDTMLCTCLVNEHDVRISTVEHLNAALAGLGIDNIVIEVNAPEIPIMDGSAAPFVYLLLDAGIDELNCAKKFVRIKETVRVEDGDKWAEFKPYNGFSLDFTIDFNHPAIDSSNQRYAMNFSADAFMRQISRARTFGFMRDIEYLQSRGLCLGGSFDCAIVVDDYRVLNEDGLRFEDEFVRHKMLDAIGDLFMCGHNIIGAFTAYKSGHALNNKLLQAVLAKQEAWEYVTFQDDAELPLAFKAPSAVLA

[9] = test system: Escherichia coli; experiment: Antibacterial activity against Escherichia coli assessed as bacterial growth inhibition two-fold microdilution; format: functional
[10] = test system: Klebsiella pneumoniae; experiment: Antibacterial activity against Klebsiella pneumoniae assessed as bacterial growth inhibition two-fold microdilution; format: functional
[11] = test system: Escherichia coli; experiment: Antibacterial activity against Escherichia coli MB4926 assessed as bacterial growth inhibition; format: functional
[12] = test system: Escherichia coli; experiment: Antibacterial activity against Escherichia coli MB5500 assessed as bacterial growth inhibition; format: functional
[13] = test system: Escherichia coli; experiment: Antibacterial activity against wild type Escherichia coli W3110 assessed as bacterial growth inhibition measured after 22 hrs by MTT assay; format: functional
[14] = biological target: T3, UDP-3-O-acyl-N-acetylglucosamine deacetylase (Aquifex aeolicus (strain VF5), UniProt O67648); experiment: Inhibition of Aquifex aeolicus LpxC transformed in Escherichia coli BL21(DE3) pLysS cells
T3 sequence (O67648 whole entry): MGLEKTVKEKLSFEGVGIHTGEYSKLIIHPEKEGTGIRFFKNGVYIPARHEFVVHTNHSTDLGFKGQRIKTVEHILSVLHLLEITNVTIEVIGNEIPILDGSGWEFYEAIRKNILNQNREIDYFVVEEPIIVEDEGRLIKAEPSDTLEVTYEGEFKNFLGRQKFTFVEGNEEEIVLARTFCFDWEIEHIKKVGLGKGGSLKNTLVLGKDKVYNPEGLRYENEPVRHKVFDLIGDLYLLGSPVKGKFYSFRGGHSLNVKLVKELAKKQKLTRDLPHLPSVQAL

[15] = test system: Escherichia coli; experiment: Antibacterial activity against Escherichia coli CMCC 25922 assessed as bacterial growth inhibition measured after 22 hrs; format: functional
[16] = test system: Escherichia coli; experiment: Antibacterial activity against Escherichia coli CMCC 44568 assessed as bacterial growth inhibition measured after 22 hrs; format: functional
[17] = test system: Pseudomonas aeruginosa; experiment: Antibacterial activity against Pseudomonas aeruginosa CMCC 27853 assessed as bacterial growth inhibition measured after 22 hrs; format: functional
[18] = test system: Pseudomonas aeruginosa; experiment: Antibacterial activity against Pseudomonas aeruginosa CMCC 10104 assessed as bacterial growth inhibition measured after 22 hrs; format: functional
[19] = biological target: T2, UDP-3-O-acyl-N-acetylglucosamine deacetylase; experiment: Inhibition of Escherichia coli LpxC assessed as inhibition constant measured after 30 mins by fluorescence based microplate assay

- IC50 [1]: 12 nM
- MIC [2]: 8.8 µg/mL
Structure (SMILES): CC(C)(N)[C@H](NC(=O)c1ccc(C#CC#C[C@@H](O)CO)cc1)C(=O)NO

- MIC [3]: 2 µg/mL
Structure (SMILES): O=C(NO)[C@@H](Cc1ccc2ccccc2c1)NS(=O)(=O)c1ccc2ccccc2c1

- MIC [4]: 1.25 µM (≈ 0.403 µg/mL)
- MIC [5]: 1.25 µg/mL (≈ 3.88 µM)
- MIC [6]: 10 µg/mL (≈ 31 µM)
Structure (SMILES): O=C(C[C@@H]1CN(c2ccc(C#Cc3ccccc3)cc2)CO1)NO

- IC50 [1]: 19 nM
- MIC [2]: 3.5 µg/mL
Structure (SMILES): CC(C)(N)[C@H](NC(=O)c1ccc(C#CC#C[C@H](O)CO)cc1)C(=O)NO

- MIC [7]: 12.5 µg/mL (≈ 35.6 µM)
Structure (SMILES): CS(=O)(=O)[C@](F)(CCc1ccc(-c2ccccc2)cc1)C(=O)NO

- IC50 [8]: 101 nM
- MIC [9]: 2 µg/mL (≈ 4.34 µM)
- MIC [10]: 2 µg/mL (≈ 4.34 µM)
Structure (SMILES): C[C@H](O)c1nccn1Cc1cc(-c2ccc(C#C[C@@H]3[C@H]4CN(CCCC(=O)O)C[C@@H]34)cc2)on1

- IC50 [1]: 0.62 nM
- MIC [2]: 0.16 µg/mL
Structure (SMILES): CC(C)(N)[C@H](NC(=O)c1ccc(C#CC#CC2CC2)cc1)C(=O)NO

- IC50 [8]: 27000 nM
Structure (SMILES): O=c1ccn([C@@H]2O[C@H](CO/N=C/c3ccc(O)c(O)c3O)[C@@H](O)[C@H]2O)c(=O)[nH]1

- MIC [2]: 2.3 µg/mL
Structure (SMILES): COC1([C@H](NC(=O)c2ccc(C#CC#CCCO)cc2)C(=O)NO)CS(=O)(=O)C1

- MIC [11]: 1 µg/mL (≈ 3.24 µM)
- MIC [12]: 1 µg/mL (≈ 3.24 µM)
Structure (SMILES): CCCc1cc(C2=N[C@@H](C(=O)NO)CO2)cc(OC)c1OC

- MIC [13]: 0.24 µg/mL (≈ 0.613 µM)
Structure (SMILES): C[C@@H](O)[C@](C)(NC(=O)c1ccc(C#CC#Cc2ccc(N)cc2)cc1)C(=O)NO

Structure (SMILES): O=C(CO/N=C/c1ccc(O)c(O)c1O)NC[C@H]1O[C@@H](n2ccc(=O)[nH]c2=O)[C@H](O)[C@@H]1O
- IC50 [8]: 120000 nM

- IC50 [14]: 192 nM
Structure (SMILES): CCCCCC(=O)O[C@@H]1[C@@H](CP(C)(=O)O)CO[C@H](CO)[C@H]1O

- MIC [15]: 8 µg/mL (≈ 24.9 µM)
- MIC [16]: 64 µg/mL (≈ 200 µM)
- MIC [17]: > 128 µg/mL
- MIC [18]: 4 µg/mL (≈ 12.5 µM)
Structure (SMILES): N=C(N)N/N=C/c1ccc(C#CC#Cc2ccccc2Cl)cc1

- MIC [15]: 2 µg/mL (≈ 6.74 µM)
- MIC [16]: 2 µg/mL (≈ 6.74 µM)
- MIC [17]: > 128 µg/mL
- MIC [18]: 1 µg/mL (≈ 3.37 µM)
Structure (SMILES): N=C(N)N/N=C/c1ccc(C#Cc2ccc(Cl)cc2)cc1

- Ki [19]: 352 nM
Structure (SMILES): O=C(NO)C1(COc2ccc(C#Cc3ccc(CN4CCOCC4)cc3)cc2)CCOCC1

- MIC [13]: 0.05 µg/mL (≈ 0.138 µM)
Structure (SMILES): C[C@@H](O)[C@H](NC(=O)c1ccc(C#CC#Cc2ccccc2)cc1)C(=O)NO
